Measured values: patent US5935997A, “O-thiocarbamoyl-aminoalkanol compounds, their pharmaceutically useful salts and process for preparing the same” (Yukong Limited, priority 1998, dated 1999)

Legend:
mice (CD-1 strain) = assay: Forced Swimming Test (antidepressant; reduction of immobility); type: in vivo; details: one hour prior to immersion, immobility in 15 min
Experimental: The therapeutic use of the compounds claimed in the present invention as antidepressants has been proven by the "Forced Swinuning Test", a well known pharmacological screening methods for depression and the results are shown in the following Table II. The procedure described by Porsolt et al., […] was used. Test compound was administered p.o. and i.p. to mice (CD-1 strain), one hour prior to the animals being immersed in a 1500 mL glass beaker (16.5 cm deep, 13.0 cm diameter) filled with water (20~23° C.) to about 5 cm from the top. Mice were kept in the water for a period of 15 minutes and the duration of immobility observed within the 15-minute test period was recorded. A mouse was judged to be immobile if it floated motionlessly in the water making only those movements necessary to keep its head above the water.

mice (CD-1strain) = assay: Maximal ElectroShock (MES) test (anticonvulsant); type: in vivo; details: for MES (animals protected/tested): 30 mg/kg; for ED50: Mus musculus

NC(=S)OC[C@@H](N)Cc1ccccc1
Inhibition (reduction, %) (mice (CD-1 strain); i.p. (30 mg/kg)): 51.2%

NC(=S)OCC(N)Cc1ccc(Cl)cc1 (stereo not drawn)
Inhibition (reduction, %) (mice (CD-1 strain); i.p. (30 mg/kg)): 30.6%
Inhibition (reduction, %) (mice (CD-1 strain); p.o. (30 mg/kg)): 38.1%

CNC(=S)OC[C@H](N)Cc1ccccc1
MES (animals protected/tested) (mice (CD-1strain); po, 0.5 h): 3/3

CN(C)C(=S)OC[C@H](N)Cc1ccc(Cl)c(Cl)c1
MES (animals protected/tested) (mice (CD-1strain); ip, 4.0 h): 1/3

NC(=S)OC[C@H](N)Cc1ccccc1 [drawing 22]
Inhibition (reduction, %) (mice (CD-1 strain); i.p. (30 mg/kg)): 41.6%

CNC(=S)OCC(Cc1ccccc1)N(C)C (stereo not drawn) [drawing 26]
Inhibition (reduction, %) (mice (CD-1 strain); i.p. (30 mg/kg)): 31.4%
Inhibition (reduction, %) (mice (CD-1 strain); p.o. (30 mg/kg)): 23.4%

NC(=S)OC[C@H](N)Cc1ccccc1 [drawing 29]
ED50 (mice (CD-1strain); ip, 0.5 h): 29 mg/kg
ED50 (mice (CD-1strain); po, 0.5 h): 189 mg/kg

CNC(=S)OCC(Cc1ccccc1)N(C)C (stereo not drawn) [drawing 33]
ED50 (mice (CD-1strain); ip, 1 h): 31.5 mg/kg
ED50 (mice (CD-1strain); po, 0.5 h): 82.5 mg/kg
